Patent publication US12473283B2, “Compounds and their use” (Debiopharm International S.A., priority 2019, dated 2025)
≈ marks a conversion by molar mass, not a printed value. Where two headings read alike, the source gives them in different places.

Key:
[1] = target: FabI enzyme from Acinetobacter baumannii (Acinetobacter baumannii, UniProt D0CAD5); experiment: Inhibition of FabI enzyme, rate of NADH consumption; format: biochemical
Method: Inhibition of FabI enzyme from Acinetobacter baumannii and Escherichia coli was tested by measuring the rate of NADH consumption (Δabsorbance at 340 nm/min) at 30° C. in 96-well plate format using an automated plate reader in the presence or absence of the test compounds. The assay mixture contained 100 mM Tris-HCl, pH 7.25 (A. baumannii) or 7.5 (E. coli), 100 mM ammonium acetate, 0.02% (A. baumannii) or 0.05% (E. coli) Pluronic F-68, 25 μM crotonyl ACP, 50 μM NADH, 25 pM (A. baumannii) or 50 pM (E. coli) recombinant FabI protein, and 7.5% DMSO. Test compounds were added at concentrations ranging from 0.17 to 10,000 nM in a final well volume of 100 μl. This dose-response inhibitory assay was performed using a 10-point, serial dilution series for each test compound. IC50 values for each test compound were assigned from logistical sigmoid curve-fitting of the inhibition dose response curves.

[2] = tested on: A. baumannii ATCC BAA1605; experiment: Broth microdilution MIC assay; format: cell-based; conditions: Acinetobacter baumannii, ATCCBAA1605; CA-MHB, 35° C., 20 hours
Method: (§1) The antibacterial activity of FabI inhibitors against select Gram-negative and Gram-positive bacterial species including susceptible and multi-drug resistant A. baumannii, E. coli, K. pneumoniae and S. aureus was tested using the broth microdilution Minimal Inhibitory Concentration (MIC) assay following CLSI guidelines for insoluble compounds. Test articles were serially diluted 2-fold in 100% dimethyl sulfoxide (DMSO) and then diluted 100-fold into cation adjusted Mueller-Hinton broth (CA-MHB) to achieve a 10-point test concentration range in 1% DMSO. Final compound concentrations were 0.016-8 μg/ml for S. aureus or 0.06-32 μg/ml for the Gram-negative species. MIC test plates were then prepared by transferring 100 μl of the final assay medium (test article in CA-MHB, 1% DMSO) into the appropriate wells of a sterile, low binding 96-well polystyrene plate. Direct colony suspension inoculums of the test strains were freshly prepared per CLSI guidelines, and the appropriate test wells were inoculated to achieve a final bacterial cell density of 5×10^5 CFU/ml. Growth control (no test article) and negative control (no bacterial inoculum) wells were also included. Exposure to light was minimized during all stages of assay preparation. […] Bacterial growth was then determined by measuring the optical density at 600 nm (OD600) using a SpectraMax Plus plate-reader spectrophotometer.

S. aureus ATCC 29213 = experiment: Broth microdilution MIC assay; format: cell-based; conditions: Staphylococcus aureus, ATCC29213; CA-MHB, 35° C., 20 hours
Method: as §1

E. coli AG100 = experiment: Broth microdilution MIC assay; format: cell-based; conditions: Escherichia coli, CA-MHB, 35° C., 20 hours
Method: as §1

[3] = recombinant FabI, 30° C., pH 7.25, read-out: A. baumannii Fabl IC50

Chain of FabI enzyme from Acinetobacter baumannii (D0CAD5 entry or part of it): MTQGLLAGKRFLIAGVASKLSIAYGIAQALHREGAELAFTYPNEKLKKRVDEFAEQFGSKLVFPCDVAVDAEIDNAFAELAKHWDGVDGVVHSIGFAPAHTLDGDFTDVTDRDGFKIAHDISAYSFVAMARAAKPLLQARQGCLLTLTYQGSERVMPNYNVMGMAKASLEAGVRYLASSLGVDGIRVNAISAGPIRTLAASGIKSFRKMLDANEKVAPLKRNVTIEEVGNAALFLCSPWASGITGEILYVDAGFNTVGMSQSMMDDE

MIC [2] [µg/mL]	MIC (S. aureus ATCC 29213) [µg/mL]	MIC (E. coli AG100) [µg/mL]	IC50 [1, 3] [µM]	Compound	IC50 [1] [µM]
				Cc1c(CN(C)C(=O)/C=C/c2cnc3c(c2)CC[C@H](N)C(=O)N3)oc2c(F)cccc12.Cl (single isomer, unassigned) [Compound 107, hydrochloride]	< 0.01
≤ 4	≤ 4	≤ 4	< 0.01	Cc1c(CN(C)C(=O)/C=C/c2cnc3c(c2)N[C@H](C)[C@H](N)C(=O)N3)oc2ccccc12 [Compound 52, (E)-3-((2R,3S)-3-amino-2-methyl-4-oxo-2,3,4,5-tetrahydro-1H-pyrido[2,3-b][1,4]diazepin-8-yl)-N-methyl-N-((3-methylbenzofuran-2-yl)methyl)acrylamide]	
≤ 4	≤ 4			CC(=O)NC1CNc2cc(/C=C/C(=O)N(C)Cc3oc4ccccc4c3C)cnc2NC1=O (centres unmarked) [Compound 42, (E)-3-(3-acetamido-4-oxo-2,3,4,5-tetrahydro-1H-pyrido[2,3-b][1,4]diazepin-8-yl)-N-methyl-N-((3-methylbenzofuran-2-yl)methyl)acrylamide]	
				Cc1c(CN(C)C(=O)/C=C/c2cnc3c(c2)CC[C@H](N)C(=O)N3)sc2c(F)cccc12.Cl (single isomer, unassigned) [Compound 140, hydrochloride]	< 0.01
				Cc1c(CN(C)C(=O)/C=C/c2cnc3c(c2)CC[C@H](N)C(=O)N3)oc2cccc(CNc3cccnc3)c12.Cl.Cl (single isomer, unassigned) [Compound 167, dihydrochloride]	< 0.01
				Cc1c(CN(C)C(=O)/C=C/c2cnc3c(c2)CC[C@H](N)C(=O)N3)oc2cccc(F)c12.Cl (single isomer, unassigned) [Compound 130, hydrochloride]	< 0.01
				Cc1c(CN(C)C(=O)/C=C/c2cnc3c(c2)CC[C@H](N)C(=O)N3)oc2c(Cl)cccc12.Cl (single isomer, unassigned) [Compound 98, hydrochloride]	< 0.01
≤ 4	≤ 4	≤ 4	< 0.01	Cc1oc2c(N)cccc2c1CN(C)C(=O)/C=C/c1cnc2c(c1)N[C@H](C)[C@H](N)C(=O)N2 [Compound 62, (E)-3-((2R,3S)-3-amino-2-methyl-4-oxo-2,3,4,5-tetrahydro-1H-pyrido[2,3-b][1,4]diazepin-8-yl)-N-((7-amino-2-methylbenzofuran-3-yl)methyl)-N-methylacrylamide]	
≤ 4	≤ 4	16 (≈ 29 µM)	< 0.01	Cc1c(CN(C)C(=O)/C=C/c2cnc3c(c2)CCC(N2CCN(S(C)(=O)=O)CC2)C(=O)N3)oc2ccccc12 (centres unmarked) [Compound 187, (E)-N-methyl-N-((3-methylbenzofuran-2-yl)methyl)-3-(7-(4-(methylsulfonyl)piperazin-1-yl)-8-oxo-6,7,8,9-tetrahydro-5H-pyrido[2,3-b]azepin-3-yl)acrylamide]	
				Cc1c(CN(C)C(=O)/C=C/c2cnc3c(c2)CC[C@H](N)C(=O)N3)oc2ccc(Oc3cccnc3)cc12.Cl (single isomer, unassigned) [Compound 151, hydrochloride]	< 0.01
